Data reported in ChEMBL document CHEMBL1201862, “PubChem BioAssay data set” (2004).
Calls of active or inactive are those of the source.

What was measured:
[1] = target: Glycogen synthase kinase-3 beta (Homo sapiens, UniProt P49841); assay: inhibition of human GSK3B activity – biochemical, microfluidics, dry powder samples, set 2, dose response (AID 623989); type: functional
[2] = target: T1, Glycogen synthase kinase-3 alpha (Homo sapiens, UniProt P49840); assay: GSK3A enzyme blockers, homolog specificity check – biochemical, microfluidics, dry powder samples, set 2, selectivity assay for GSK3beta inhibitor project, dose response (AID 623978); type: functional
T1 sequence (P49840 whole entry): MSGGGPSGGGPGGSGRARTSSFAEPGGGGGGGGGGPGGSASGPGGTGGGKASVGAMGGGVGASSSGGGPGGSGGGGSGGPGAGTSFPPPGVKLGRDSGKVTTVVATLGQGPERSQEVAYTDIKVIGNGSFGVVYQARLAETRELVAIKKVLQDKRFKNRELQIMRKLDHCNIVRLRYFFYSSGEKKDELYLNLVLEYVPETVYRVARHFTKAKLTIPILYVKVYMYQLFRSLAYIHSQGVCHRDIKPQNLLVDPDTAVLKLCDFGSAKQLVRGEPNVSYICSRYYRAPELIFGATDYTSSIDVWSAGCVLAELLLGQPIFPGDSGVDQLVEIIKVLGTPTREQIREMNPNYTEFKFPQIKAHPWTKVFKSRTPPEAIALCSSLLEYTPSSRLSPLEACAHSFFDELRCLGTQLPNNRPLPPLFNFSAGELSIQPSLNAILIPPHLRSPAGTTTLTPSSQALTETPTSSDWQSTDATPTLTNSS

[3] = target: Cyclin-dependent kinase 5/CDK5 activator 1 (Homo sapiens, UniProt Q00535); assay: inhibitors of human CDK5 activity – biochemical, microfluidic mobility shift, dry powder, set 2, selectivity assay for GSK3beta inhibitor project, dose response (AID 623979); type: functional
[4] = target: T2, DNA repair protein RAD52 homolog (Homo sapiens, UniProt P43351); type: functional, biochemical
T2 sequence (P43351 whole entry): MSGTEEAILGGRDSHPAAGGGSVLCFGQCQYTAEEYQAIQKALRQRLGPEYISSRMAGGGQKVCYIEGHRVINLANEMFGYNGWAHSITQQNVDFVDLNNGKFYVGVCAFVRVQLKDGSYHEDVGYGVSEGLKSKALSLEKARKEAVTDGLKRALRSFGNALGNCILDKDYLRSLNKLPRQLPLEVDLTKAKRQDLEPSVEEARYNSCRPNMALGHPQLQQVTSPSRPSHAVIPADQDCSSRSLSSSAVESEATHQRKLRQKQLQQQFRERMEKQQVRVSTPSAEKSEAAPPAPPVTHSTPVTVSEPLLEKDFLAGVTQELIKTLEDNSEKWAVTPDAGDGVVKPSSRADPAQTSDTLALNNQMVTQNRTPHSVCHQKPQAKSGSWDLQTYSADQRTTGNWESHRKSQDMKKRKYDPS

[5] = target: T3, Ubiquitin-conjugating enzyme E2 N (Homo sapiens, UniProt P61088); type: functional;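 note: Dose-response confirmation in a TR-FRET assay detecting UBC13-driven polyubiquitin chain formation, inhibition measured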
T3 sequence (P61088 whole entry): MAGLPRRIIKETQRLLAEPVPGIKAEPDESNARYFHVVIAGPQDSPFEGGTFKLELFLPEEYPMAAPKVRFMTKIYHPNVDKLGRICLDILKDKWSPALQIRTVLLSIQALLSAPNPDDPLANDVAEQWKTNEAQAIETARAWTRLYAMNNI

[6] = target: T4, Multidrug resistance protein CDR2 (Candida albicans (strain SC5314 / ATCC MYA-2876) (Yeast), UniProt P78595); assay: inhibition of Nile Red efflux via Candida CDR2 – S. cerevisiae AD1-8u, singleplex, Cherry Pick1 hits, dose response (AID 588604); type: functional
T4 sequence (P78595 whole entry): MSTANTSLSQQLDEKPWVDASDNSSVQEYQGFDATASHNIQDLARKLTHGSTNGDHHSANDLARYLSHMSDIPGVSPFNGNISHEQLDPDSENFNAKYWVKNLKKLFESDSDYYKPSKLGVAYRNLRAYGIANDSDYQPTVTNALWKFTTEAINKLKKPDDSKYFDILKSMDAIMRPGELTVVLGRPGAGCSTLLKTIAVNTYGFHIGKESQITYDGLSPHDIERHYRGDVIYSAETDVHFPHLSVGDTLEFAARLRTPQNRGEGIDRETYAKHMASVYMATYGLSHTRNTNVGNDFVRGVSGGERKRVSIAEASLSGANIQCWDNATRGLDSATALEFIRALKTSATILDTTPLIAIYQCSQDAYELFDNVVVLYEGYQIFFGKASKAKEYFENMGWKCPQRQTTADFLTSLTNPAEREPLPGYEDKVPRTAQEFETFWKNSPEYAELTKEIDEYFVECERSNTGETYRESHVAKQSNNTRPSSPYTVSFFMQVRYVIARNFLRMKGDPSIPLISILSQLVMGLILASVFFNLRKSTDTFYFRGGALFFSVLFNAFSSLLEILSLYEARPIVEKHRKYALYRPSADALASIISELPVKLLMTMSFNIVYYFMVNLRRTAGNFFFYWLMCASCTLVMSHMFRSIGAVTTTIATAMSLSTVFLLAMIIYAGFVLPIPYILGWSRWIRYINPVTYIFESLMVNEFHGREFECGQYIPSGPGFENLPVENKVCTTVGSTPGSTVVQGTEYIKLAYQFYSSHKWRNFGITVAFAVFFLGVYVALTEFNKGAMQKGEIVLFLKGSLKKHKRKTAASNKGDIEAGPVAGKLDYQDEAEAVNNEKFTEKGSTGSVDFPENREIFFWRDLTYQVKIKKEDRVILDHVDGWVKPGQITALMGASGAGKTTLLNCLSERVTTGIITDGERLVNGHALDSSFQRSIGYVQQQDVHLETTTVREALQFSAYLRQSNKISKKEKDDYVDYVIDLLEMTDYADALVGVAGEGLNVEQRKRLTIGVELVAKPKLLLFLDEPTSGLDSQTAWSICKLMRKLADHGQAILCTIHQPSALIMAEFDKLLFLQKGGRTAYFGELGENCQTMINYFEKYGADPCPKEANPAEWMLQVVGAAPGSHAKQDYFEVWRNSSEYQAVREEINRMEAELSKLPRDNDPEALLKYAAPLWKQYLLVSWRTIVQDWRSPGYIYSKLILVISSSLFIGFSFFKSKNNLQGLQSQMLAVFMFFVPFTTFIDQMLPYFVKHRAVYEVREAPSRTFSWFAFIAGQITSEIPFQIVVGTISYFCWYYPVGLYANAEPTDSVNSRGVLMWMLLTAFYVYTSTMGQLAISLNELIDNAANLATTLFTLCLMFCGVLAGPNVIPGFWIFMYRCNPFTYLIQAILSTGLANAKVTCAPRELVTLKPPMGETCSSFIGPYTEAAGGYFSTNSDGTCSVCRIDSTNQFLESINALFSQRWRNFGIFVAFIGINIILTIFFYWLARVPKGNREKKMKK

[7] = target: T4, Multidrug resistance protein CDR2; assay: blockers of Nile Red efflux by Candida CDR2 – S. cerevisiae AD1-8u, singleplex, Cherry Pick2 set, dose response (AID 623994); type: functional; details: read-out: EC50_MICROM
[8] = target: T5, Benomyl/methotrexate resistance protein (Candida albicans, UniProt P28873); assay: Candida albicans Mdr1 pump inhibition curves – singleplex, Cherry Pick1 hits, dose response (AID 588608); type: functional
T5 sequence (P28873 whole entry): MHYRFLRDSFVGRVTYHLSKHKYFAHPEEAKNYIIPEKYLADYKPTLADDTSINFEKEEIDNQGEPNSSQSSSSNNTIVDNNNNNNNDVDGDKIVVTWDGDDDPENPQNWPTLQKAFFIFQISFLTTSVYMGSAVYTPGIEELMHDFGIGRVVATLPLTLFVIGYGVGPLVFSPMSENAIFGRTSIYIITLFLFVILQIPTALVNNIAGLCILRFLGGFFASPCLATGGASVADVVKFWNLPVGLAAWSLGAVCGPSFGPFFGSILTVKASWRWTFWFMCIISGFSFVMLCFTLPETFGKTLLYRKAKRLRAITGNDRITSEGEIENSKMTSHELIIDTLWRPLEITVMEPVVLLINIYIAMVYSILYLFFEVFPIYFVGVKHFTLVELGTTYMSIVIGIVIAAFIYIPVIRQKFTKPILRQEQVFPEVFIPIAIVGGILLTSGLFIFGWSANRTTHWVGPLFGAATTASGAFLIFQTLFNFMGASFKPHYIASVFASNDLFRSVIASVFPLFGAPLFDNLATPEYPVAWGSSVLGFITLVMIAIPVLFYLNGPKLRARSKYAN

[9] = target: T6, Multidrug resistance protein CDR1 (Candida albicans, UniProt P43071); assay: inhibition of Nile Red efflux via Candida CDR1 – S. cerevisiae AD1-8u, singleplex, Cherry Pick1 hits, dose response (AID 588606); type: functional
T6 sequence (P43071 whole entry, looked up): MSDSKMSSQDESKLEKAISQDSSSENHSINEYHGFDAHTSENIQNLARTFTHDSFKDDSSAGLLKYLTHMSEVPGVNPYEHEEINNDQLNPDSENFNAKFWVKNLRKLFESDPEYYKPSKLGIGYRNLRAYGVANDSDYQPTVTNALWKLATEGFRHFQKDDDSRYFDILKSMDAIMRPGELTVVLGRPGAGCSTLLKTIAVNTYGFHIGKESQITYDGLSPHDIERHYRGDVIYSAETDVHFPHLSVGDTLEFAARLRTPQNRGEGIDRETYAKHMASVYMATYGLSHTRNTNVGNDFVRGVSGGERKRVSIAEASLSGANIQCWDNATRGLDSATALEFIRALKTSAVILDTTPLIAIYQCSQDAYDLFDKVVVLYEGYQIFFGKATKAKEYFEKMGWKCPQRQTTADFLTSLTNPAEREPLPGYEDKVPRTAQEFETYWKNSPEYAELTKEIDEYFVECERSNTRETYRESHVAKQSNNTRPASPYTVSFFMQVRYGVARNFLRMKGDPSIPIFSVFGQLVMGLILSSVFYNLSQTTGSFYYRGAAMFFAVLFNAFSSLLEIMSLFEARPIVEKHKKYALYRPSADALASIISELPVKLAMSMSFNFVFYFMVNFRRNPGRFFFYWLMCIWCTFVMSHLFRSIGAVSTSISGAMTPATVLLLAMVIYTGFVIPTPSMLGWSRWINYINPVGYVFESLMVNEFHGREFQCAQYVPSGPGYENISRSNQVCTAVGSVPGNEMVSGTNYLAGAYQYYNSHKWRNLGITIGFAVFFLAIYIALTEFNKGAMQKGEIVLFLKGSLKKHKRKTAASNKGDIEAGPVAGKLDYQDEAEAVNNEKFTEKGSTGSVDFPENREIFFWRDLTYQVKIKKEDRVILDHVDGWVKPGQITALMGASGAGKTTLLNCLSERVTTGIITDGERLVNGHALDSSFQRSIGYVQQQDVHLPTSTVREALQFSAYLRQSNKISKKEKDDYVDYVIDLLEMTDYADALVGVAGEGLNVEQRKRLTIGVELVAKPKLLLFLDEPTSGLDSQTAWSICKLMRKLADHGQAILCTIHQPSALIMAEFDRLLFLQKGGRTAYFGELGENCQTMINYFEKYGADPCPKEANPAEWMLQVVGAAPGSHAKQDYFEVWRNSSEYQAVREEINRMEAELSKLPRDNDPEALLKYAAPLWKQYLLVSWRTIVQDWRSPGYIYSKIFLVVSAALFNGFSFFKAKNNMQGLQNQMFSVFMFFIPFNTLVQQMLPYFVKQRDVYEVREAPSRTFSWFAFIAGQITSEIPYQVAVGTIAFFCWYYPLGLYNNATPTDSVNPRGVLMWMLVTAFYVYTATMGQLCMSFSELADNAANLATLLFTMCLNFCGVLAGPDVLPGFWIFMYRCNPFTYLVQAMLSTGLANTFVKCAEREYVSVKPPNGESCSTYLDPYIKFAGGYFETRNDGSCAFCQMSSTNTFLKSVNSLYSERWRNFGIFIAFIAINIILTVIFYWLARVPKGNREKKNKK

[10] = target: T6, Multidrug resistance protein CDR1; assay: Candida albicans Cdr1 pump inhibition curves – singleplex, Cherry Pick2 set, dose response (AID 623996); type: functional; details: read-out: EC50_MICROM
[11] = target: T5, Benomyl/methotrexate resistance protein; assay: Candida albicans Mdr1 pump blockade titration – singleplex, Cherry Pick2 set, dose response (AID 623992); type: functional; details: read-out: EC50_MICROM
[12] = Vero cell cytotoxicity, dose response, cytotoxicity control for M. tuberculosis growth inhibitor project, Vero cells, purified and synthesized compounds, set 5 (AID 504909); type: functional; details: Mycobacterium tuberculosis
[13] = THP-1 cell cytotoxicity, cytotoxicity control, set 4 (AID 504911); type: functional; details: Mycobacterium tuberculosis
[14] = Vero cell cytotoxicity, dose response, cytotoxicity control for M. tuberculosis growth inhibitor project, Vero cells, purified and synthesized compounds, set 4 (AID 504854); type: functional; details: Mycobacterium tuberculosis
[15] = target: Protein kinase C theta type (Homo sapiens, UniProt Q04759); assay: Navigating the Kinome. Panel member name: PRKCQ; type: functional
[16] = target: Ribosomal protein S6 kinase alpha-3 (Homo sapiens, UniProt P51812); type: functional;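 note: measured within a kinome-wide profiling panel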
[17] = target: Dual specificity mitogen-activated protein kinase kinase 1 (Homo sapiens, UniProt Q02750); assay: Navigating the Kinome. Panel member name: MAP2K1; type: functional
[18] = target: Tyrosine-protein kinase JAK2 (Homo sapiens, UniProt O60674); type: functional;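 note: JAK2 tested as one member of a kinase panel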
[19] = target: 5'-AMP-activated protein kinase catalytic subunit alpha-1 (Homo sapiens, UniProt Q13131); type: functional
[20] = target: ALK tyrosine kinase receptor (Homo sapiens, UniProt Q9UM73); type: functional;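 note: ALK tested as one member of a kinase panel screen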
[21] = target: Proto-oncogene tyrosine-protein kinase receptor Ret (Homo sapiens, UniProt P07949); type: functional;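 note: measured within a kinome-wide profiling panel, RET as the panel member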
[22] = target: Tyrosine-protein kinase receptor TYRO3 (Homo sapiens, UniProt Q06418); type: functional;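 note: TYRO3 value obtained as one member of a kinome-wide profiling panel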
[23] = target: Tyrosine-protein kinase Lck (Homo sapiens, UniProt P06239); type: functional;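 note: lck was assayed as one member of a kinase panel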
[24] = target: Death-associated protein kinase 3 (Homo sapiens, UniProt O43293); type: functional;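 note: measured as one member of a kinome-wide profiling panel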
Activin receptor type-1 = Activin receptor type-1 (Homo sapiens, UniProt Q04771); assay: Navigating the Kinome. Panel member name: ACVR1; type: functional
[25] = target: Mitogen-activated protein kinase 8 (Homo sapiens, UniProt P45983); type: functional;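 note: value comes from one member of a kinome-wide kinase profiling panel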
[26] = target: Serine/threonine-protein kinase pim-1 (Homo sapiens, UniProt P11309); type: functional
Aurora kinase A = Aurora kinase A (Homo sapiens, UniProt O14965); type: functional;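 note: value from the Navigating the Kinome kinase panel profiling, panel entry STK6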
Sequence of Aurora kinase A (O14965 whole entry): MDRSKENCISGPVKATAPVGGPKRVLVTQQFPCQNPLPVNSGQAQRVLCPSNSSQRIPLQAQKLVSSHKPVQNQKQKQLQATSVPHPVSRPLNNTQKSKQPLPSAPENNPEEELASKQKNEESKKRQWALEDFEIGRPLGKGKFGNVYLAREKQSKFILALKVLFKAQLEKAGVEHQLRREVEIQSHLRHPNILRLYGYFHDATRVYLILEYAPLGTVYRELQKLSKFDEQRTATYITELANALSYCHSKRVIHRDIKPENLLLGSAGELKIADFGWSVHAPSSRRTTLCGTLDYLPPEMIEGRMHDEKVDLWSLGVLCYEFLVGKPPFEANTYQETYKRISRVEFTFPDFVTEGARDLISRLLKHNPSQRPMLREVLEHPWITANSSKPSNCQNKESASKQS

[27] = target: Serine/threonine-protein kinase PAK 4 (Homo sapiens, UniProt O96013); type: functional;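 note: value obtained within a kinome profiling panel in which PAK4 was one of the panel members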
[28] = target: Casein kinase I isoform alpha (Homo sapiens, UniProt P48729); type: functional
[29] = target: Tyrosine-protein kinase JAK3 (Homo sapiens, UniProt P52333); type: functional
LIM domain kinase 1 = LIM domain kinase 1 (Homo sapiens, UniProt P53667); assay: Navigating the Kinome. Panel member name: LIMK1; type: functional
[30] = target: Serine/threonine-protein kinase TAO1 (Homo sapiens, UniProt Q7L7X3); type: functional
[31] = target: T1, Glycogen synthase kinase-3 alpha; type: functional
[32] = target: Mitogen-activated protein kinase kinase kinase kinase 2 (Homo sapiens, UniProt Q12851); type: functional;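 note: measured as one member of a kinome-wide kinase panel, with MAP4K2 as the panel entry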
[33] = target: Hepatocyte growth factor receptor (Homo sapiens, UniProt P08581); type: functional;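 note: kinase panel profiling across the kinome, with MET as the panel member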
Activated CDC42 kinase 1 = Activated CDC42 kinase 1 (Homo sapiens, UniProt Q07912); assay: Navigating the Kinome. Panel member name: ACK1; type: functional
[34] = target: Platelet-derived growth factor receptor beta (Homo sapiens, UniProt P09619); type: functional;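 note: value comes from a kinome panel, with PDGFRB tested as one panel member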
[35] = target: Receptor-type tyrosine-protein kinase FLT3 (Homo sapiens, UniProt P36888); type: functional;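 note: FLT3 was tested as one member of a kinome-wide kinase panel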
[36] = target: Serine/threonine-protein kinase Chk1 (Homo sapiens, UniProt O14757); type: functional;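 note: measured as one member of a kinome-wide kinase profiling panel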
[37] = target: Vascular endothelial growth factor receptor 2 (Homo sapiens, UniProt P35968); type: functional
[38] = target: G protein-coupled receptor kinase 5 (Homo sapiens, UniProt P34947); assay: Navigating the Kinome. Panel member name: GPRK5; type: functional
[39] = target: Cyclin-dependent kinase 5 (Homo sapiens, UniProt Q00535); type: functional;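 note: CDK5 measured as one member of a kinase profiling panel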
[40] = target: Insulin-like growth factor 1 receptor (Homo sapiens, UniProt P08069); assay: Navigating the Kinome. Panel member name: IGF1R; type: functional
[41] = target: Dual specificity tyrosine-phosphorylation-regulated kinase 1B (Homo sapiens, UniProt Q9Y463); assay: Navigating the Kinome. Panel member name: DYRK1B; type: functional
[42] = target: cAMP-dependent protein kinase catalytic subunit PRKX (Homo sapiens, UniProt P51817); type: functional
Focal adhesion kinase 1 = Focal adhesion kinase 1 (Homo sapiens, UniProt Q05397); type: functional;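 note: measured as one member of a kinome panel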
[43] = target: Leucine-rich repeat serine/threonine-protein kinase 2 (Homo sapiens, UniProt Q5S007); type: functional;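 note: value from a broad kinome-wide panel profiling study in which LRRK2 was one of the kinases tested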
Aurora kinase B = Aurora kinase B (Homo sapiens, UniProt Q96GD4); type: functional
[44] = target: Rho-associated protein kinase 1 (Homo sapiens, UniProt Q13464); type: functional;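 note: measured within a broad kinome-wide panel profiling many kinases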
[45] = target: Tyrosine-protein kinase Fyn (Homo sapiens, UniProt P06241); type: functional
[46] = target: Serine/threonine-protein kinase Nek2 (Homo sapiens, UniProt P51955); type: functional
[47] = target: Cyclin-dependent kinase 8 (Homo sapiens, UniProt P49336); assay: Navigating the Kinome. Panel member name: CDK8; type: functional
[48] = target: Cyclin-dependent kinase 7 (Homo sapiens, UniProt P50613); type: functional;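 note: value comes from a kinome-wide kinase profiling panel in which CDK7 is one member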
Sequence of Cyclin-dependent kinase 7 (P50613 whole entry): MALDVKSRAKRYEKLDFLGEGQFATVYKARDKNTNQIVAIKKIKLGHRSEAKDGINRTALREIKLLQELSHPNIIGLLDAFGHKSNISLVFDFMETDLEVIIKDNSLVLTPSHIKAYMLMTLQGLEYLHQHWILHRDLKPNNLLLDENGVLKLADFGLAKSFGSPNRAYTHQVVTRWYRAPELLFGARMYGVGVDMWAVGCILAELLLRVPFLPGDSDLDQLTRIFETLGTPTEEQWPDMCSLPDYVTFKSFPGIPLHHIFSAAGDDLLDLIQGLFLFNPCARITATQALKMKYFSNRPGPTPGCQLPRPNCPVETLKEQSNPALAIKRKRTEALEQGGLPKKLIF

[49] = target: Cyclin-dependent kinase 9 (Homo sapiens, UniProt P50750); type: functional;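 note: value from the CDK9 entry of a kinome-spanning kinase panel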
[50] = target: BDNF/NT-3 growth factors receptor (Homo sapiens, UniProt Q16620); type: functional;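 note: NTRK2 measured as one member of a broad kinome-wide kinase profiling panel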
[51] = target: Dual specificity protein kinase CLK4 (Homo sapiens, UniProt Q9HAZ1); type: functional
[52] = target: Macrophage colony-stimulating factor 1 receptor (Homo sapiens, UniProt P07333); type: functional;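 note: value comes from the Navigating the Kinome screening panel, CSF1R member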
[53] = target: Dual specificity mitogen-activated protein kinase kinase 2 (Homo sapiens, UniProt P36507); assay: Navigating the Kinome. Panel member name: MAP2K2; type: functional
[54] = target: Dual specificity tyrosine-phosphorylation-regulated kinase 1A (Homo sapiens, UniProt Q13627); type: functional;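 note: measured against DYRK1A as one member of a broad kinome profiling panel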
[55] = target: Inhibitor of nuclear factor kappa-B kinase subunit epsilon (Homo sapiens, UniProt Q14164); assay: Navigating the Kinome. Panel member name: IKBKE; type: functional
[56] = target: Leukocyte tyrosine kinase receptor (Homo sapiens, UniProt P29376); assay: Navigating the Kinome. Panel member name: LTK; type: functional
[57] = target: Melanin-concentrating hormone receptor 1 (Homo sapiens, UniProt Q99705); assay: Late-stage fluorescence-based counterscreen for antagonists of the G-protein coupled receptor 7 (GPR7): cell-based dose response assay to identify antagonists of the melanin-concentrating hormone receptor 1 (MCHR1) Set 6.; type: functional
[58] = target: Neuropeptides B/W receptor type 1 (Homo sapiens, UniProt P48145); assay: human NPBW1 receptor blockade, IC50 – cell-based, fluorescence, dose response, set 6, late-stage follow-up (AID 588583); type: functional
[59] = target: DNA dC->dU-editing enzyme APOBEC-3A (Homo sapiens, UniProt P31941); assay: SAR analysis of small molecule inhibitors of APOBEC3A DNA Deaminase via a fluorescence-based single-stranded DNA deaminase assay - Set 2.; type: functional; details: read-out: IC50_Mean
Sequence of DNA dC->dU-editing enzyme APOBEC-3A (P31941 whole entry): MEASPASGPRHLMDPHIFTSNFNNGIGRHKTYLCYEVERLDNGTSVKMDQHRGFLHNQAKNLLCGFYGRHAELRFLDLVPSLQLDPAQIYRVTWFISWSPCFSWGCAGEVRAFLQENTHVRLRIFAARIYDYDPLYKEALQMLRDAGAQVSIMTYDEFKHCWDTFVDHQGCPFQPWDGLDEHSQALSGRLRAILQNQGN

[60] = target: DNA dC->dU-editing enzyme APOBEC-3G (Homo sapiens, UniProt Q9HC16); assay: SAR analysis of small molecule inhibitors of APOBEC3G DNA Deaminase via a fluorescence-based single-stranded DNA deaminase assay - Set 2.; type: functional; details: read-out: IC50_Mean

COc1cccc(/C=C2/Sc3ccc(C(=O)NCCCN4CCCC4)cc3NC2=O)c1
active: AC50 [1] 4.46 µM | AC50 [2] 38.9 µM | AC50 [3] 7.91 µM | AC50 [4] 4.47 µM

NC1=NC[C@@H](Cc2ccc(O)cc2)N1CCCCC1CCCCC1
active: EC50 [6] 27.3 µM | EC50 [7] 16.3 µM
inactive: IC50 [5] > 20 µM

Cc1noc(C)c1C(=O)N1CCC2(CC1)Oc1ccc(F)cc1C(=O)C21CC(c2ccc(Cl)cc2)=NO1 (stereo unspecified)
active: EC50 [8] 15.6 µM | EC50 [9] 11.5 µM | EC50 [10] 26.8 µM | EC50 [11] 16.9 µM

Oc1nc(SCc2ccccc2Cl)nc2c1CCCC2
active: CC50 [12] > 100 µM | CC50 [13] > 100 µM | CC50 [14] > 100 µM

NC(=O)c1ccc2nc(-c3ccc([N+](=O)[O-])o3)cn2c1
inactive: Ki [23] > 6.31 µM | Ki [37] > 2.51 µM | Ki [40] > 2.51 µM | Ki [50] > 3.98 µM
active: Ki [15] 0.251 µM | Ki [16] 0.631 µM | Ki [17] 1.58 µM | Ki [18] 1.26 µM | Ki [19] 0.158 µM | Ki [20] 0.631 µM | Ki [21] 0.316 µM | Ki [22] 0.1 µM | Ki [24] 0.251 µM | Ki (Activin receptor type-1) 0.2 µM | Ki [25] 1.58 µM | Ki [26] 0.631 µM | Ki (Aurora kinase A) 0.126 µM | Ki [27] 0.794 µM | Ki [28] 0.126 µM | Ki [29] 0.794 µM | Ki (LIM domain kinase 1) 0.158 µM | Ki [30] 1.26 µM | Ki [31] 1 µM | Ki [32] 0.251 µM | Ki [33] 0.0501 µM | Ki (Activated CDC42 kinase 1) 0.251 µM | Ki [34] 1 µM | Ki [35] 2.51 µM | Ki [36] 0.0501 µM | Ki [38] 0.158 µM | Ki [39] 0.126 µM | Ki [41] 0.0794 µM | Ki [42] 0.631 µM | Ki (Focal adhesion kinase 1) 0.316 µM | Ki [43] 0.126 µM | Ki (Aurora kinase B) 0.251 µM | Ki [44] 1 µM | Ki [45] 2 µM | Ki [46] 0.0631 µM | Ki [47] 0.126 µM | Ki [48] 0.631 µM | Ki [49] 0.0398 µM | Ki [51] 0.02 µM | Ki [52] 1.26 µM | Ki [53] 1 µM | Ki [54] 0.0316 µM | Ki [55] 0.126 µM | Ki [56] 0.0794 µM

O=c1c(-c2ccc(F)cc2)c(Br)cnn1Cc1cccc2ccccc12
active: IC50 [57] 2.24 µM | IC50 [58] 2.24 µM

CCc1nc2sc3c(c2c2nnc(SC)n12)CCCC3
inactive: IC50 [59] > 99 µM | IC50 [60] > 99 µM
